Measurements from patent US9566247B2, “Nanoparticles for controlled release of anti-biofilm agents and methods of use” (priority 2013, dated 2017).

Key:
[1] = test system: Biofilms of S. mutans UA159; assay: Antibiofilm activity, CFU per dry weight of biofilms on sHA discs; format: cell-based, Streptococcus mutans; conditions: equivalent dose of free farnesol (15% EtOH) or free NPC
Description: Biofilms of S. mutans UA159 were formed on saliva coated hydroxyapatite (sHA) surfaces (12.7 mm in diameter, 1 mm in thickness, Clarkson Chromatography Products Inc., South Williamsport, Pa.) as detailed elsewhere (Koo et al., 2010, J Bacteriol, 192(12):3024-32). The HA discs were placed vertically using a custom-made holder and grown in UFTYE (pH 7.0) with 1% sucrose at 37° C. and 5% CO2. Disks were pretreated with the above-described solutions for 10 min, washed twice with sterile saline, and transferred back to culture media. The first treatment was applied directly after salivary pellicle formation (sHA) then treated disks were transferred to culture media containing S. mutans (10^5 CFU/ml). Biofilms were allowed to form on the discs without interruption for 6 hours at which point a second treatment was applied. The next day, biofilms were treated every 6 hours for a total of 3 treatments and the culture media was changed twice. After 48 hours, the amount of colony forming units (CFU) per dry-weight of biofilms was assessed. Briefly, the biofilms were removed and homogenized, then plated onto blood agar plates, and after incubation at 37° C., 5% CO2, the CFUs were counted as described previously (Koo et al., 2003, J Antimicrob Chemother, 52(5):782-9).

[2] = test system: Streptococcus mutants (S. mutans); conditions: cited from earlier work

Which results are given for CC(C)=CCCC(C)=CCCC(C)=CCO [farnesol]?
effect on CFU relative to PBS [1]: no effect on CFU; MIC [2]: < 28 µg/mL
